Experimental data reported in patent US8158630B2, “Application of 2,5 -dihydroxymethyl-3,6-dimethyl pyrazine and its derivates in pharmacy” (Nanjing University of Chinese Medicine, priority 2010, dated 2012).

Columns and labels:
isolated hearts of rats = test: Effects on the cardiac contractility of isolated hearts of rats (Langendorff perfusion); set-up: species or system rat; conditions: 0.1 mmol/L; for heart dysrhythmia / +dp/dtmax (maximum value of left ventricular pressure increase) / Heart rate / LVEDP (left ventricular diastolic pressure) / LVSP (left ventricular systolic pressure) / −dp/dtmax (maximum value of left ventricular pressure decrease): isolated rat heart; for +dp/dtmax (maximum value of left ventricular pressure increase) / Heart rate / LVEDP (left ventricular diastolic pressure) / LVSP (left ventricular systolic pressure) / −dp/dtmax (maximum value of left ventricular pressure decrease): after administration
Description: Intraperitoneal injection of 1.2 g/kg urethane is carried out on rats and the hearts are collected. After the hearts are rinsed and cut in 100% oxygen saturated physiological saline at 0° C., they are connected to modified Langendorff heart perfusion equipments to couduct retrogressive perfusion via the aorta. The perfusate (in mmol/L) is NaCl 117, KCl 5.7, CaCl2 1.8, NaHCO3 4.4, NaH2PO4 1.5, MgCl2 1.7, HEPES 20, Glucose 11, Creatine 10, Taurine 20, and NaOH is used to adjust the pH value to 7.3. The probe of the pressure receptor is inserted into the left ventricle via the left auricle, and BioAmp amplifier is used to record the left ventricular pressure, and the electrocardiogram is measured at the same time.

normal rats = test: Effects on heart functions and hemodynamics of normal rats, intravenous administration; type: in vivo, rat; conditions: for LVEDP / LVSP / +dp/dtmax / −dp/dtmax: normal rats, within one minute after administration, n = 10; for +dp/dtmax / −dp/dtmax: in mmHg/s (unit assumed)
Description: After the rats are paralysed with 20% ethyl urethane (urethane) (1 g/kg) and fixed on a thermostatical operation table on their backs, needle-electrodes for electrocardiogram are subcutaneously inserted from their extremities and the lead II […] (ECG) and the heart rate (HR) are measured by inputting into the multiplying channel device. The right common carotid artery is isolated from the inner side of sternocleidomastoid muscle after the […] and temperature (37° C.) become stable, and the right common carotid artery is ligated at its head end and left ventricular cannulation is carried out. It is connected with the polygraph via a pressure transducer to measure the heart function indexes of left ventricle, in the meantime, the right femoral vein is isolated and venous cannulation is carried out for the intravenous administration, and the non-inserted end is connected to a syringe that is filled with 40 IU/mL heparin physiological saline, the multi-channel physiological signal acquisition and processing system is used to record the data. After the measured indexes become stable, the data at one minute before the drug administration are recorded as the blank control, and Liguzinediol is dissolved in physiological saline and then use 5, 10 and 20 mg/kg respectively as the low, mediate and high dosage groups, and the results within one minute after the intravenous administration are shown in Table 2. The heart rate aberration that is induced by Liguzinediol is not found in the three dosage groups after administration.

SMILES	cardiac contractility of isolated hearts of rats (isolated hearts of rats)	heart dysrhythmia (isolated hearts of rats)	+dp/dtmax (maximum value of left ventricular pressure increase) (isolated hearts of rats)	Heart rate (isolated hearts of rats)	LVEDP (left ventricular diastolic pressure) (isolated hearts of rats)	LVSP (left ventricular systolic pressure) (isolated hearts of rats)	−dp/dtmax (maximum value of left ventricular pressure decrease) (isolated hearts of rats)	other results
CC(=O)OCc1nc(C)c(COC(C)=O)nc1C [Compound 1, 2,5-diacetoxymethyl-3,6-dimethyl pyrazine]	significantly increase	no heart dysrhythmia is found	831.9 ± 268.2	191.6 ± 58.0^Δ	−14.4 ± 7.2	26.1 ± 12.5	−884.9 ± 347.0	–
Cc1nc(CO)c(C)nc1CO [Compound 2, 2,5-dihydroxymethyl-3,6-dimethyl pyrazine]	significantly increase	no heart dysrhythmia is found	790.3 ± 251.6	154.4 ± 28.8^Δ	−13.0 ± 2.3	26.9 ± 5.9	−763.5 ± 188.0	LVEDP (normal rats; 5 mg/kg i.v.): 7.9 ± 6.3; LVSP (normal rats; 5 mg/kg i.v.): 132.7 ± 9.1; +dp/dtmax (normal rats; 5 mg/kg i.v.): 12027 ± 1388; −dp/dtmax (normal rats; 5 mg/kg i.v.): −10238 ± 1247; LVEDP (normal rats; 10 mg/kg i.v.): 6.9 ± 6.1; LVSP (normal rats; 10 mg/kg i.v.): 135.7 ± 10.9; +dp/dtmax (normal rats; 10 mg/kg i.v.): 11484 ± 1410; −dp/dtmax (normal rats; 10 mg/kg i.v.): −9667 ± 670; LVEDP (normal rats; 20 mg/kg i.v.): 6.3 ± 4.8; LVSP (normal rats; 20 mg/kg i.v.): 139.7 ± 4.6; +dp/dtmax (normal rats; 20 mg/kg i.v.): 12347 ± 1030; −dp/dtmax (normal rats; 20 mg/kg i.v.): −9964 ± 1045; left ventricular contraction and diastolic function of rat heart (normal rats; rats, 5, 10 and 20 mg/kg i.v.): significantly increase the left ventricular contraction and improve the diastolic function; heart rate aberration (normal rats; rats, 5, 10 and 20 mg/kg i.v., after administration): not found
